Test results taken from patent publication US20220088115A1, “PHARMACEUTICAL COMPOSITION, COMPRISING INHIBITORY PEPTIDE AGAINST FAS SIGNALING, FOR PREVENTION OR TREATMENT OF OBESITY, FATTY LIVER, OR STEATOHEPATITIS” (SIGNET BIOTECH INC., priority 2018, published 2022).

How the values were obtained:
obesity model mice [1] = experiment: Crown-like structure (CLS) in white adipose tissues, obesity model mice, intravenous FBP-8; type: in vivo, C57BL/6 mice; details: compared to negative control (CtrFBP)
Experimental: (§1) All animal experiments performed for the present invention were approved by the Institutional Animal Care and Use Committee of Hanyang University. […] Thereafter, depending on the experimental group, 60 μg/one time of FBP8 were administered by intravenous injection twice a week for a total of 5 weeks (FIG. 13), or FBP7 was administered by subcutaneous injection twice a day.
Liver tissue and white adipose tissue sections were stained with hematoxylin & eosin and then histologically analyzed under an optical microscope.

Fas = target: T1, Fas (Mus musculus, UniProt P25446); experiment: Binding of fluorescently labeled peptide to Fas in liver and white adipose tissue sections of HFD mice; details: sections from high fat diet (HFD) group
T1 construct: from tissue; host or cells: liver and white adipose tissue sections of high-fat-diet C57BL/6 mice
T1 sequence (P25446 22-327): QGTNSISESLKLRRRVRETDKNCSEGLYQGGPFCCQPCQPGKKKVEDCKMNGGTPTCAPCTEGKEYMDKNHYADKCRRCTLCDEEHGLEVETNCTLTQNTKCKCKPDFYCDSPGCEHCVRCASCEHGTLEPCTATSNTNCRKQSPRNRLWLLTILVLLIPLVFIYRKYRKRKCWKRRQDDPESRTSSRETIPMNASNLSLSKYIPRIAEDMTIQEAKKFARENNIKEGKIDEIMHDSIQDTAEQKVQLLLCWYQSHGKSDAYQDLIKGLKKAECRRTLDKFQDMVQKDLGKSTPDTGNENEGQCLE
Experimental: After the animal experiment was completed, mice were sacrificed to isolate liver tissues and white adipose tissues and prepare tissue sections. The prepared liver tissue and white adipose tissue sections were treated with an antigen retrieval buffer at 95° C. for 25 minutes and then cooled at room temperature. Thereafter, the tissue sections were treated with Tris Based Saline+Tween20 (TBST) containing 1% bovine serum albumin (BSA), 10% goat serum and 0.05% Tween 20 to undergo a blocking process, and were reacted with a Fas receptor-specific primary antibody at 4° C. for 18 hours. Thereafter, tissue sections were washed with TBST and reacted with a FITC-bound secondary antibody at room temperature for 2 hours.
In addition, in order to examine the tissue-binding ability of the peptide, the peptide to which Alexa 488 was bound was reacted with the primary antibody at 4° C. for 18 hours. The nuclei were stained with Hoechst 33342 (GE Healthcare), washed with TBST, and then confirmed.
The fluorescence signal of each tissue section was analyzed under a TCS-SP5 confocal microscope (Leica, Germany).

obesity model mice [2] = experiment: Pro-inflammatory cytokines in blood, obesity model mice, intravenous FBP-8; type: in vivo, C57BL/6 mice
Experimental: as §1
(§2) The cytokine levels of serum and tissues were analyzed with an ELISA kit (eBioscience, USA), and the triglyceride levels of liver tissues were confirmed with a triglyceride assay kit (Cayman, USA).

3T3L1 cell line [3] = experiment: Apoptosis level in 3T3L1 cell line treated with FasL and peptide (annexin V flow cytometry); type: cell-based, murine; details: differentiated 3T3L1 treated with Fas ligand and peptide
Experimental: (§3) The 3T3L1 cell line was cultured in a DMEM culture medium containing 10% FBS, 1% penicillin, 1% streptomycin, and 25 mM glucose. The 3T3L1 cell line was aliquoted into the above DMEM culture solution at a concentration of 2×10^5 cells/ml to induce adipocyte maturation for 3 days, and then replaced with a culture solution containing insulin to induce adipocyte maturation again for 3 days. Thereafter, the 3T3L1 cell line was further cultured in the above DMEM culture solution for 2 days to achieve complete maturation of adipocytes.
The 3T3L1 cell line was treated with a Fas ligand (FasL) at a concentration of 500 ng/ml to induce apoptosis, and FBP signal blocking peptides (FBP-8. FBP-A and FBP-7) and CtrFBP bound to Alexa647 were treated, respectively. After 4 hours of peptide treatment, cells were washed with DPBS and treated with FITC-bound annexin V (BD Pharmingen) to analyze the apoptosis inhibitory effect by a flow cytometer.

[4] = Delivery of fluorescently labeled peptide to organs of normal body weight mice; type: in vivo; details: intravenous (IV) or subcutaneous (SC) injection, 12 hours
3T3L1 cell line [5] = experiment: Inflammation-related cytokines in 3T3L1 cell culture solution (ELISA); type: cell-based, murine; details: 3T3L1 treated with FasL and FBP-8
Experimental: as §3, §2

obesity model mice [6] = experiment: Daily food intake and body weight change, obesity model mice, intravenous FBP-8; type: in vivo, C57BL/6 mice
Experimental: as §1
(§4) Obesity model mice were produced by feeding normal mice a high fat diet for 8 weeks, and FBP-8 was administered by intravenous injection twice a week for a total of 5 weeks (FIG. 13). After five weeks, the obesity model mice were sacrificed to isolate white adipose tissues and liver tissues and analyze the proportion of dead cells by TUNEL staining.

3T3L1 cell line [7] = experiment: Free fatty acid (FFA) release into 3T3L1 cell culture solution; type: cell-based, murine; details: 3T3L1 treated with FasL and FBP-8
Experimental: as §3

obesity model mice [8] = experiment: Blood fatty acid, insulin, triglyceride, ALT and liver triglyceride, obesity model mice, intravenous FBP-8; type: in vivo, C57BL/6 mice
Experimental: as §1, §2

obesity model mice [9] = experiment: TUNEL staining of dead cells, obesity model mice, intravenous FBP-8; type: in vivo, C57BL/6 mice; details: intravenous twice a week for 5 weeks
Experimental: as §1
Furthermore, a terminal deoxynucleotidyl transferase dUTP nick end labeling (TUNEL) analysis for each tissue was performed with an in situ cell death detection kit (Millipore, USA). Thereafter, the fluorescence signals were analyzed under a TCS-SP5 confocal microscope by staining the nuclei with Hoechst 33342, and the fluorescence signals of each cell were analyzed with the Image J program.
as §4

[10] = Delivery of fluorescently labeled peptide to tissues of obesity model mice (HFD); type: in vivo, C57BL/6 mice
Experimental: as §1
100 μg of an Alexa 647-bound peptide was administered by intravenous injection into obesity model mice, and after 12, 24, and 48 hours, the tissues were isolated, and the fluorescence signals in each tissue were analyzed with an image station fluorescence analyzer (Carestream). After the fluorescence signal analysis, the relative fluorescence intensity of each tissue was compared using an ImageJ program provided by NIH.
In addition, 100 μg of Alexa 488-bound FBP was administered by intravenous injection into obesity model mice to confirm whether cell units of peptides were delivered to liver tissues, and frozen tissue sections were produced by isolating the liver tissues after 12, 24, and 48 hours. Thereafter, the nuclei were stained with Hoechst 33342, and the fluorescence signals were analyzed under a TCS-SP5 confocal microscope.
Based on the Fas-specific binding ability of FBP-8 confirmed by the experiments, it was confirmed whether FBP-8 could be specifically delivered to liver tissues or adipose tissues when systemically delivered by intravenous injection or subcutaneous injection. Fluorescently labeled FBP-8 was injected by intravenous injection or subcutaneous injection into obesity model mice in the high fat diet group, and after 24 and 48 hours, the fluorescence distribution was investigated by isolating each organ.

[11] = compared to negative control (CtrFBP)
[12] = intravenous, liver tissue sections

For “YCDEHFCY (Fas binding peptide-8 (FBP-8))”, which “crown-like structure (CLS) in white adipose tissues” value (obesity model mice [1]) is on record?
The value was “remarkably reduced”.

What about the “co-staining with Fas-specific antibody in liver and white adipose tissue sections” value (Fas) of the same sequence?
Its value is “the stained sites coincided”.

And the “concentrations of IL-6 and MCP-1 in blood” value (obesity model mice [2])?
The value was “decrease”.

What about the apoptosis level (3T3L1 cell line [3]) of the same sequence?
The apoptosis level was 14±2.98%.

What about the “fluorescence signal in the liver tissue of normal mice” value [4] of the same sequence?
The value was “a significant fluorescence signal could not be observed”.

What about the “concentrations of IL-6 and MCP-1 in the cell culture solution” value (3T3L1 cell line [5]) of the same sequence?
The value was “reduces”.

What about the daily food intake (obesity model mice [6]) of the same sequence?
Its daily food intake is “no significant change”.

And the body weight gain (obesity model mice [6]; [11])?
The body weight gain was “slower”.

What about the “extracellular release of fatty acids (FFA)” value (3T3L1 cell line [7]) of the same sequence?
The value was “significantly inhibited”.

And the “reduction of triglyceride (TG) concentration in blood” value (obesity model mice [8])?
Its value is “about 25%”.

What about the “reduction of triglyceride (TG) concentration in the liver tissue” value (obesity model mice [8]) of the same sequence?
Its value is “about 50%”.

And the “decrease of fatty acid concentration in blood” value (obesity model mice [8]; [11])?
Its value is “about 20%”.

What about the “decrease of insulin concentration in blood” value (obesity model mice [8]; [11]) of the same sequence?
The value was “about 20%”.

And the “reduction of blood alanine aminotransferase (ALT) level” value (obesity model mice [8]; [11])?
The value was at least 30%.

What about the “proportion of dead cells in liver tissue (TUNEL)” value (obesity model mice [9]) of the same sequence?
Its value is 9±2.37%.

What about the “proportion of dead cells in white adipose tissue (TUNEL)” value (obesity model mice [9]) of the same sequence?
Its value is 31+2.37%.

What about the “tissue delivery after intravenous injection” value ([10]; intravenous, 24 and 48 hours) of the same sequence?
The value was “specifically delivered to the liver tissue and white adipose tissue”.

What about the “time from which peptide was delivered to the liver tissue after intravenous injection” value [10, 12] of the same sequence?
Its value is 12 h.

What about the “time until which peptide remained in the liver tissue after intravenous injection” value [10, 12] of the same sequence?
The value was 48 h.

And the “time remaining in the liver tissue after subcutaneous injection” value ([10]; subcutaneous)?
Its value is at least 48 h.

And the “tissue delivery after subcutaneous injection” value ([10]; subcutaneous, compared to CtrFBP, 24 and 48 hours)?
The value was “specifically delivered to the liver tissue”.
